According to PubChem BioAssay (NCI):
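Following 48 hours of exposure in 96-well plates, responses at five concentrations were used to interpolate endpoints linearly. GI50 marks 50% less growth. TGI denotes the concentration required for complete inhibition of growth.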

How the values were obtained:
Experiment in all cases: inhibition of tumour cell growth, NCI panel, 48 h
RXF 393 renal = system: RXF 393 renal
SK-MEL-5 melanoma = system: SK-MEL-5 melanoma
LOX IMVI melanoma = system: LOX IMVI melanoma
SF-268 CNS = system: SF-268 CNS
MDA-MB-435 = system: MDA-MB-435
RPMI-8226 leukemia = system: RPMI-8226 leukemia
T-47D breast = system: T-47D breast
NCI-H226 lung = system: NCI-H226 lung
HCC-2998 colon = system: HCC-2998 colon
HCT-15 colon = system: HCT-15 colon
HCT-116 colon = system: HCT-116 colon
HS 578T breast = system: HS 578T breast
CAKI-1 renal = system: CAKI-1 renal
TK-10 renal = system: TK-10 renal
SW-620 colon = system: SW-620 colon
HOP-62 NSCLC = system: HOP-62 NSCLC
NCI-H522 lung = system: NCI-H522 lung
NCI-H23 lung = system: NCI-H23 lung
MDA-MB-231 breast = system: MDA-MB-231 breast
SNB-19 CNS = system: SNB-19 CNS
U251 CNS = system: U251 CNS
NCI-H460 lung = system: NCI-H460 lung
SN12C renal = system: SN12C renal
786-0 renal = system: 786-0 renal
DU-145 prostate = system: DU-145 prostate
UO-31 renal = system: UO-31 renal
MDA-MB-468 breast = system: MDA-MB-468 breast
SK-OV-3 ovarian = system: SK-OV-3 ovarian
BT-549 breast = system: BT-549 breast
KM12 colon = system: KM12 colon
PC-3 prostate = system: PC-3 prostate
MOLT-4 leukemia = system: MOLT-4 leukemia
OVCAR-5 ovarian = system: OVCAR-5 ovarian
EKVX NSCLC = system: EKVX NSCLC
COLO 205 colon = system: COLO 205 colon
OVCAR-8 ovarian = system: OVCAR-8 ovarian
SF-295 CNS = system: SF-295 CNS
UACC-257 melanoma = system: UACC-257 melanoma
HOP-92 NSCLC = system: HOP-92 NSCLC
UACC-62 melanoma = system: UACC-62 melanoma
SK-MEL-28 melanoma = system: SK-MEL-28 melanoma
SF-539 CNS = system: SF-539 CNS
K-562 leukemia = system: K-562 leukemia
ACHN renal = system: ACHN renal
M14 melanoma = system: M14 melanoma
OVCAR-3 ovarian = system: OVCAR-3 ovarian
MCF7 breast = system: MCF7 breast
HT29 colon = system: HT29 colon
A549 NSCLC = system: A549 NSCLC
MALME-3M melanoma = system: MALME-3M melanoma
A498 renal = system: A498 renal
OVCAR-4 ovarian = system: OVCAR-4 ovarian
CCRF-CEM leukemia = system: CCRF-CEM leukemia
IGROV1 ovarian = system: IGROV1 ovarian
HL-60(TB) leukemia = system: HL-60(TB) leukemia
SNB-75 CNS = system: SNB-75 CNS
SR leukemia = system: SR leukemia

COc1ccc(C(SCCNCc2cc(N(C)C)ccn2)(c2ccccc2)c2ccccc2)cc1
GI50 (RXF 393 renal): 2.61 µM
TGI (RXF 393 renal): 11.5 µM
GI50 (SK-MEL-5 melanoma): 1.08 µM
TGI (SK-MEL-5 melanoma): 3.82 µM
GI50 (LOX IMVI melanoma): 2.04 µM
TGI (LOX IMVI melanoma): 11.4 µM
GI50 (SF-268 CNS): 4.02 µM
TGI (SF-268 CNS): 20.4 µM
GI50 (MDA-MB-435): 0.214 µM
TGI (MDA-MB-435): 0.475 µM
GI50 (RPMI-8226 leukemia): 0.954 µM
TGI (RPMI-8226 leukemia): 10 µM
GI50 (T-47D breast): 4.7 µM
TGI (T-47D breast): 21.9 µM
GI50 (NCI-H226 lung): 4.45 µM
TGI (NCI-H226 lung): 17.8 µM
GI50 (HCC-2998 colon): 0.7 µM
TGI (HCC-2998 colon): 2.14 µM
GI50 (HCT-15 colon): 0.432 µM
TGI (HCT-15 colon): 11.6 µM
GI50 (HCT-116 colon): 0.324 µM
TGI (HCT-116 colon): 10.5 µM
GI50 (HS 578T breast): 1.37 µM
TGI (HS 578T breast): 9.32 µM
GI50 (CAKI-1 renal): 3.54 µM
TGI (CAKI-1 renal): 17.6 µM
GI50 (TK-10 renal): 9.54 µM
TGI (TK-10 renal): 21.7 µM
GI50 (SW-620 colon): 0.916 µM
TGI (SW-620 colon): 16.8 µM
GI50 (HOP-62 NSCLC): 4.34 µM
TGI (HOP-62 NSCLC): 19.8 µM
GI50 (NCI-H522 lung): 0.707 µM
TGI (NCI-H522 lung): 5.77 µM
GI50 (NCI-H23 lung): 3.12 µM
TGI (NCI-H23 lung): 13.1 µM
GI50 (MDA-MB-231 breast): 1.48 µM
TGI (MDA-MB-231 breast): 4.8 µM
GI50 (SNB-19 CNS): 3.48 µM
TGI (SNB-19 CNS): 15.3 µM
GI50 (U251 CNS): 0.592 µM
TGI (U251 CNS): 13.6 µM
GI50 (NCI-H460 lung): 2.93 µM
TGI (NCI-H460 lung): 12.5 µM
GI50 (SN12C renal): 1.49 µM
TGI (SN12C renal): 13.7 µM
GI50 (786-0 renal): 1.4 µM
TGI (786-0 renal): 7.55 µM
GI50 (DU-145 prostate): 3.5 µM
TGI (DU-145 prostate): 12.8 µM
GI50 (UO-31 renal): 3.78 µM
TGI (UO-31 renal): 17.5 µM
GI50 (MDA-MB-468 breast): 0.544 µM
TGI (MDA-MB-468 breast): 2.9 µM
GI50 (SK-OV-3 ovarian): 3.57 µM
TGI (SK-OV-3 ovarian): 15.9 µM
GI50 (BT-549 breast): 1.92 µM
TGI (BT-549 breast): 6.03 µM
GI50 (KM12 colon): 3.66 µM
TGI (KM12 colon): 16 µM
GI50 (PC-3 prostate): 1.67 µM
TGI (PC-3 prostate): 15 µM
GI50 (MOLT-4 leukemia): 3.47 µM
TGI (MOLT-4 leukemia): 13.6 µM
GI50 (OVCAR-5 ovarian): 3.07 µM
TGI (OVCAR-5 ovarian): 11.9 µM
GI50 (EKVX NSCLC): 1.5 µM
TGI (EKVX NSCLC): 17.1 µM
GI50 (COLO 205 colon): 1.09 µM
TGI (COLO 205 colon): 2.97 µM
GI50 (OVCAR-8 ovarian): 1.87 µM
TGI (OVCAR-8 ovarian): 18.1 µM
GI50 (SF-295 CNS): 0.618 µM
TGI (SF-295 CNS): 11.5 µM
GI50 (UACC-257 melanoma): 5.71 µM
TGI (UACC-257 melanoma): 19.8 µM
GI50 (HOP-92 NSCLC): 2.16 µM
TGI (HOP-92 NSCLC): 11 µM
GI50 (UACC-62 melanoma): 4.22 µM
TGI (UACC-62 melanoma): 16.6 µM
GI50 (SK-MEL-28 melanoma): 5.6 µM
TGI (SK-MEL-28 melanoma): 18.7 µM
GI50 (SF-539 CNS): 1.61 µM
TGI (SF-539 CNS): 3.83 µM
GI50 (K-562 leukemia): 0.697 µM
TGI (K-562 leukemia): 13.6 µM
GI50 (ACHN renal): 2.48 µM
TGI (ACHN renal): 18.5 µM
GI50 (M14 melanoma): 0.447 µM
TGI (M14 melanoma): 2.48 µM
GI50 (OVCAR-3 ovarian): 2.53 µM
TGI (OVCAR-3 ovarian): 12.4 µM
GI50 (MCF7 breast): 0.322 µM
TGI (MCF7 breast): 11 µM
GI50 (HT29 colon): 2.25 µM
TGI (HT29 colon): 5.66 µM
GI50 (A549 NSCLC): 3.79 µM
TGI (A549 NSCLC): 20 µM
GI50 (MALME-3M melanoma): 3.36 µM
TGI (MALME-3M melanoma): 15.8 µM
GI50 (A498 renal): 15.6 µM
TGI (A498 renal): 30.1 µM
GI50 (OVCAR-4 ovarian): 9.25 µM
TGI (OVCAR-4 ovarian): 22.7 µM
GI50 (CCRF-CEM leukemia): 0.468 µM
TGI (CCRF-CEM leukemia): 15.4 µM
GI50 (IGROV1 ovarian): 3.43 µM
TGI (IGROV1 ovarian): 17.1 µM
GI50 (HL-60(TB) leukemia): 2.11 µM
TGI (HL-60(TB) leukemia): 5.28 µM
GI50 (SNB-75 CNS): 2.86 µM
TGI (SNB-75 CNS): 13.6 µM
GI50 (SR leukemia): 0.566 µM
TGI (SR leukemia): > 100 µM
